Measured values published in paper PMC12040169 (PLOS Biology, 2025).

Experiment: in vitro
Conditions: human, hela cells, % viability

COc1ccc(-c2cc(C(=O)NCCc3cccc(C(F)(F)F)c3)cnc2-c2ccccc2)cn1 [CBK036662]
viability at 28.5 h, 10 µM: 99.9%

COc1ccc(-c2cc(C(=O)NCCc3c[nH]cn3)cnc2-c2ccc(F)cc2)cn1 [CBK036675]
viability at 28.5 h, 10 µM: 112%

O=C(c1cnc(-c2ccccc2)c(-c2cccnc2)c1)N1CCC(S(=O)(=O)c2ccccc2)C1 (stereo not drawn) [CBK036685]
viability at 28.5 h, 10 µM: 103%

Nc1ccc(-c2nc(NC(=O)Cc3ccccc3)cnc2-c2ccc(F)c(Cl)c2)cc1 [CBK036690]
viability at 28.5 h, 10 µM: 89.5%

CC(C)[C@H](CO)NC(=O)c1cnc(-c2ccccc2)c(-c2ccncc2)c1 [CBK036691]
viability at 28.5 h, 10 µM: 115%

COc1ccc(-c2cc(C(=O)NCC(F)(F)F)cnc2-c2ccc(Cl)cc2)cn1 [CBK036698]
viability at 28.5 h, 10 µM: 103%

COc1ccc(-c2cc(C(=O)NCc3ccc(F)cc3)cnc2-c2cccc(C)c2)cc1 [CBK036702]
viability at 28.5 h, 10 µM: 98.8%

COc1ccc(C(C)C)cc1-c1nccnc1NC1CCC(N)CC1 (stereo not drawn) [CBK036703]
viability at 28.5 h, 10 µM: 108%

COc1ccc(-c2cc(C(=O)N3CCC(S(C)(=O)=O)C3)cnc2-c2ccccc2)cn1 (stereo not drawn) [CBK036706]
viability at 28.5 h, 10 µM: 99.7%

O=C(O)c1cccc(NC(=O)c2cnc(-c3ccccc3)c(-c3ccco3)c2)c1 [CBK036710]
viability at 28.5 h, 10 µM: 93.4%

COc1ccc(C(C)C)cc1-c1nccnc1N[C@@H](CO)C(C)C [CBK036711]
viability at 28.5 h, 10 µM: 109%

O=C(Nc1cnc(-c2cccc(C(F)(F)F)c2)c(-c2ccco2)n1)c1cccnc1 [CBK036714]
viability at 28.5 h, 10 µM: 95.3%

CC(=O)N1CCC(C(=O)Nc2cnc(-c3ccc(F)c(Cl)c3)c(-c3cccnc3)n2)CC1 [CBK036719]
viability at 28.5 h, 10 µM: 108%

CC(=O)c1ccc(OCC(=O)Nc2cnc(-c3cccc(C)c3)c(-c3ccc(N)cc3)n2)cc1 [CBK036722]
viability at 28.5 h, 10 µM: 107%

Cc1noc(C)c1C(=O)Nc1cnc(-c2cccc(C(F)(F)F)c2)c(-c2cccnc2)n1 [CBK036727]
viability at 28.5 h, 10 µM: 96.8%

COc1ccc(-c2cc(C(=O)NCc3ccc(N)cc3)cnc2-c2cccc(C)c2)cc1 [CBK036728]
viability at 28.5 h, 10 µM: 106%

COc1ccc(-c2cc(C(=O)NCCc3ccccn3)cnc2-c2cccc(C)c2)cc1 [CBK036730]
viability at 28.5 h, 10 µM: 93.7%

C[C@@H](Nc1nccnc1-c1cccc(F)c1)c1ccccc1 [CBK036733]
viability at 28.5 h, 10 µM: 98.3%

CC(C)(CO)CNC(=O)c1cnc(-c2ccccc2)c(-c2ccncc2)c1 [CBK036734]
viability at 28.5 h, 10 µM: 111%

c1ccc2c(CCNc3nccnc3-c3ccoc3)c[nH]c2c1 [CBK036743]
viability at 28.5 h, 10 µM: 102%

Cc1cccc(-c2ncc(NC(=O)CC3OC(=O)c4ccccc43)nc2-c2ccc(N)cc2)c1 (stereo not drawn) [CBK036749]
viability at 28.5 h, 10 µM: 91.5%

CC(NC(=O)c1cnc(-c2ccc(Cl)cc2)c(-c2ccc(O)cc2)c1)c1ccc(F)cc1 (stereo not drawn) [CBK036751]
viability at 28.5 h, 10 µM: 89.9%

COC1CCC(C(=O)Nc2cnc(-c3cccc(OC(F)(F)F)c3)c(-c3cccnc3)n2)CC1 (stereo not drawn) [CBK036754]
viability at 28.5 h, 10 µM: 97.4%

COc1ccccc1-c1nccnc1NCc1ccc(OC(F)(F)F)cc1 [CBK036761]
viability at 28.5 h, 10 µM: 96%

Fc1cccc(-c2nccnc2NCCc2ccncc2)c1 [CBK036763]
viability at 28.5 h, 10 µM: 95.8%

CCC(CO)Nc1nccnc1-c1cccc(F)c1 (stereo not drawn) [CBK036775]
viability at 28.5 h, 10 µM: 108%

COc1cccc(CNc2nccnc2-c2ccoc2)c1OC [CBK036782]
viability at 28.5 h, 10 µM: 105%

Nc1cccc(-c2nccnc2N2CCCC2CO)c1 (stereo not drawn) [CBK036786]
viability at 28.5 h, 10 µM: 102%

CN(C)CCN1CCN(c2ccc(-c3ccc(OC(F)(F)F)cc3)cn2)CC1 [CBK036796]
viability at 28.5 h, 10 µM: 94.7%

COc1ccc(Nc2ccc(-c3ccc4c(c3)OCO4)cn2)c(C)c1 [CBK036799]
viability at 28.5 h, 10 µM: 102%

CCC(CO)Nc1nccnc1-c1cccs1 (stereo not drawn) [CBK036800]
viability at 28.5 h, 10 µM: 98.3%

CO[C@@H](C(=O)Nc1cnc(-c2ccc(F)cc2)c(-c2ccsc2)n1)c1ccccc1 [CBK036803]
viability at 28.5 h, 10 µM: 98.4%

FC(F)(F)Oc1ccc(CNc2nccnc2-c2cccs2)cc1 [CBK036806]
viability at 28.5 h, 10 µM: 100%

O=C(CCc1cccnc1)Nc1cnc(-c2cccc(OC(F)(F)F)c2)c(-c2cccnc2)n1 [CBK036811]
viability at 28.5 h, 10 µM: 94.5%

O=C(c1ccc(-c2nccnc2NCC2CC2)cc1)N1CCOCC1 [CBK036814]
viability at 28.5 h, 10 µM: 88.8%

COc1ccc(-c2ccc(N3CCN(CCN(C)C)CC3)nc2)cc1OC [CBK036818]
viability at 28.5 h, 10 µM: 98.2%

O=C(Nc1cnc(-c2ccc(F)c(Cl)c2)c(-c2cccnc2)n1)c1cnccn1 [CBK036819]
viability at 28.5 h, 10 µM: 102%

CN(C)CCN(C)c1ccc(-c2cc3ccccc3o2)cn1 [CBK036820]
viability at 28.5 h, 10 µM: 107%

Fc1ccc(-c2ccc(N3CCN(c4ccncc4)CC3)nc2)cc1Cl [CBK036821]
viability at 28.5 h, 10 µM: 111%

CN(C)CCN(C)c1cccc(/C=C/c2ccccc2)n1 [CBK036826]
viability at 28.5 h, 10 µM: 109%

COc1ccc(Nc2ccc(-c3cnc(OC)nc3OC)cn2)c(C)c1 [CBK036827]
viability at 28.5 h, 10 µM: 115%

C=CCNc1nccnc1-c1ccccc1OC [CBK036831]
viability at 28.5 h, 10 µM: 106%

O=C1CCCN1CCCNc1nccnc1-c1ccncc1 [CBK036832]
viability at 28.5 h, 10 µM: 106%

FC(F)(F)c1ccc(CNc2nccnc2-c2cccs2)cc1 [CBK036834]
viability at 28.5 h, 10 µM: 98.6%

O=C(Nc1cnc(-c2cccc(OC(F)(F)F)c2)c(-c2cccnc2)n1)c1ccccn1 [CBK036837]
viability at 28.5 h, 10 µM: 99.2%

CN1CCN(C(=O)c2ccc(-c3nccnc3NCCc3cccnc3)cc2)CC1 [CBK036838]
viability at 28.5 h, 10 µM: 97.2%

COc1ccc(-c2nc(NC(=O)Cc3ccccc3OC)cnc2-c2cccc(C)c2)cn1 [CBK036839]
viability at 28.5 h, 10 µM: 111%

CC(=O)c1ccc(-c2nc(NC(=O)CC#N)cnc2-c2ccc(F)c(Cl)c2)s1 [CBK036841]
viability at 28.5 h, 10 µM: 108%

O=C(CCN1CCCCC1)Nc1cnc(-c2ccc(F)cc2)c(-c2ccsc2)n1 [CBK036846]
viability at 28.5 h, 10 µM: 90.3%

COc1ncc(-c2ccc(N3CCN(c4ccncc4)CC3)nc2)c(OC)n1 [CBK036848]
viability at 28.5 h, 10 µM: 99.1%

c1ccc(N2CCN(c3cccc(-c4ccc5c(c4)OCO5)n3)CC2)nc1 [CBK036851]
viability at 28.5 h, 10 µM: 104%

O=C1CCCN1CCCNc1nccnc1-c1ccc(CO)cc1 [CBK036860]
viability at 28.5 h, 10 µM: 87.2%

Fc1cccc(-c2nccnc2NCCc2c[nH]c3ccccc23)c1 [CBK036861]
viability at 28.5 h, 10 µM: 96.7%

COCCNc1nccnc1-c1cccc(C(=O)N2CCN(C)CC2)c1 [CBK036864]
viability at 28.5 h, 10 µM: 99.9%

COc1cc(CNc2nccnc2-c2ccc(C(=O)N3CCOCC3)cc2)cc(OC)c1 [CBK036866]
viability at 28.5 h, 10 µM: 99.2%

O=C(Nc1cnc(-c2cccc(C(F)(F)F)c2)c(-c2ccco2)n1)c1ccccn1 [CBK036873]
viability at 28.5 h, 10 µM: 88.5%

c1ccc(N2CCN(c3cccc(-c4cc5ccccc5o4)n3)CC2)nc1 [CBK036875]
viability at 28.5 h, 10 µM: 107%

CN1CCN(c2nccnc2-c2cccc(F)c2)CC1 [CBK036876]
viability at 28.5 h, 10 µM: 89.8%

CN(C)c1cccc(Nc2ccc(-c3cccc(C(=O)O)c3)cn2)c1 [CBK036879]
viability at 28.5 h, 10 µM: 101%

O=C(O)c1cccc(-c2cccc(N3CCN(c4ccccn4)CC3)n2)c1 [CBK036888]
viability at 28.5 h, 10 µM: 92.7%

COc1ccccc1-c1nccnc1NCc1ccccn1 [CBK036894]
viability at 28.5 h, 10 µM: 108%

O=C(CCOc1ccccc1F)Nc1cnc(-c2ccc(F)cc2)c(-c2ccsc2)n1 [CBK036897]
viability at 28.5 h, 10 µM: 99.7%

C=CCNc1nccnc1-c1ccc(O)cc1 [CBK036898]
viability at 28.5 h, 10 µM: 99.6%

CN(C)c1ccc(CC(=O)Nc2cnc(-c3cccc(C(F)(F)F)c3)c(-c3cccnc3)n2)cc1 [CBK036901]
viability at 28.5 h, 10 µM: 98.2%

COc1cc(-c2ccc(NCCn3cc[nH]c3=O)nc2)cc(OC)c1OC [CBK036907]
viability at 28.5 h, 10 µM: 106%

COc1ccccc1-c1ccc(Nc2ccccc2)nc1 [CBK036909]
viability at 28.5 h, 10 µM: 85.4%

NCCCNc1ccc(-c2ccco2)cn1 [CBK036911]
viability at 28.5 h, 10 µM: 100%

c1ccc(Oc2ccccc2-c2ccc(Nc3ccc(N4CCOCC4)cc3)nc2)cc1 [CBK036913]
viability at 28.5 h, 10 µM: 108%

CN(C)c1cccc(Nc2ccc(-c3ccc(CCC(=O)O)cc3)cn2)c1 [CBK036918]
viability at 28.5 h, 10 µM: 97.2%

O=C(c1ccc(-c2nccnc2NCc2ccco2)cc1)N1CCOCC1 [CBK036920]
viability at 28.5 h, 10 µM: 98.6%

CS(=O)(=O)c1ccc(-c2nccnc2N2CCN(c3ccncc3)CC2)cc1 [CBK036924]
viability at 28.5 h, 10 µM: 98.5%

CN(C)c1ccc(-c2nccnc2NCC(O)COc2ccccc2)cc1 (stereo not drawn) [CBK036928]
viability at 28.5 h, 10 µM: 103%

CC(=O)c1ccc(-c2nc(NC(=O)c3ccccn3)cnc2-c2cccc(OC(F)(F)F)c2)s1 [CBK036929]
viability at 28.5 h, 10 µM: 107%

Cc1ccc(-c2ccc(N3CCN(C)CC3)nc2)cc1C [CBK036937]
viability at 28.5 h, 10 µM: 93.7%

CCOc1ccccc1C(=O)Nc1cnc(-c2cccc(OC(F)(F)F)c2)c(-c2cccnc2)n1 [CBK036952]
viability at 28.5 h, 10 µM: 114%

COc1ccc(-c2nc(NC(=O)c3ccco3)cnc2-c2cccc(C)c2)cn1 [CBK036954]
viability at 28.5 h, 10 µM: 96.8%

O=C(COc1ccccc1)Nc1cnc(-c2ccc(F)cc2)c(-c2ccsc2)n1 [CBK036958]
viability at 28.5 h, 10 µM: 91.7%

CC(=O)Nc1cccc(-c2cc(N3CCN(C(=O)c4ccco4)CC3)ncn2)c1 [CBK036959]
viability at 28.5 h, 10 µM: 93.7%

c1ccc(CCNc2cc(-c3ccsc3)ncn2)nc1 [CBK036963]
viability at 28.5 h, 10 µM: 93.9%

c1cncc(-c2nccnc2N2CCN(c3ccncc3)CC2)c1 [CBK036965]
viability at 28.5 h, 10 µM: 86.4%

COc1ccc(N2CCN(c3nccnc3-c3ccc(C(C)=O)s3)CC2)cc1OC [CBK036968]
viability at 28.5 h, 10 µM: 109%

COc1ccc(-c2cc(Nc3ccc(N(C)C)cc3)ncn2)cc1OC [CBK036969]
viability at 28.5 h, 10 µM: 108%

COc1ncc(-c2nccnc2NCC(C)O)c(OC)n1 (stereo not drawn) [CBK036970]
viability at 28.5 h, 10 µM: 105%

CCN(CC)CCN1CCN(c2cc(-c3ccsc3)ncn2)CC1 [CBK036973]
viability at 28.5 h, 10 µM: 93.7%

c1ccc(CN2CC[C@H](Nc3nccnc3-c3cccnc3)C2)cc1 [CBK036978]
viability at 28.5 h, 10 µM: 104%

CCCC/C=C/c1ccc(N2CCN(CCN(C)C)CC2)nc1 [CBK036980]
viability at 28.5 h, 10 µM: 101%

CC(=O)c1ccc(-c2nccnc2N[C@@H]2CCN(Cc3ccccc3)C2)s1 [CBK036981]
viability at 28.5 h, 10 µM: 104%
